Source: patent US6787125B1, “Compound screening method” (priority 1999, dated 2004)
Counter-ions that a name gives are not always drawn. Like-named read-outs stand apart in the source and are kept apart here.

Tested on: C. elegans
Assay type: in vivo
From the text: Nematode worms that are placed in liquid culture will move in such a way that they maintain a more or less even (or homogeneous) distribution throughout the culture. Nematode worms that are defective in movement will precipitate to the bottom in liquid culture.
Advanced multi-well plate readers are able to detect sub-regions of the wells of multi-well plates. By using these plate readers it is possible to take measurements in selected areas of the surface of the wells of the multi-well plates. If the area of measurement is centralized, so that only the middle of the well is measured, a difference in nematode autofluorescence (fluorescence which occurs in the absence of any external marker molecule) or optical density can be observed in the wells containing nematodes that move normally as compared to wells containing nematodes that are defective for movement. For the wells containing the nematodes that move normally, a low level of autofluorescence or optical density will be observed, whilst a high level of autofluorescence or optical density can be observed in the wells that contain the nematodes that are defective in movement. Optical density is measured using a variation of the platelet aggregation assay, which is well known in the art. Using the MRX revelation device from Dynex (USA), optical density can be measured at multiple points per well, showing the precipitation pattern of the nematodes.
In an adaptation of the movement assay, autofluorescence or optical density measurements can be taken in two areas of the surface of the well, one measurement in the centre of the well, and on measurement on the edge of the well. Comparing the two measurements gives analogous results as in the case if only the centre of the well is measured but the additional measurement of the edge of the well results in an extra control and somewhat more distinct results.

Row | Compound | movement assay reading, first number column (no head printed) (Table 10 c3) | movement assay reading, second number column (no head printed) (Table 10 c4) | hit call: detectable change in the movement behaviour (Table 10 c7) | hit call: detectable change in the movement behaviour (in vivo) | movement assay reading, first number column (no head printed) (in vivo) | movement assay reading, second number column (no head printed) (in vivo)
1 | COc1cc2nc(N3CCN(C(=O)c4ccco4)CC3)nc(N)c2cc1OC [Prazosin] | 94689 | 113608 | HIT | – | – | –
2 | CCCCCCC(C)(C)c1cc(O)c2c(c1)OC(C)(C)[C@@H]1CC=C(CO)C[C@@H]21 [HU 210] | 15481 | 33514 | HIT | – | – | –
3 | O=C(O)[C@@H]1C[C@H](C(=O)O)N1 [cis-Azetidine-2,4-dicarboxylic acid] | 19503 | 40568 | HIT | – | – | –
4 | NC(CCP(=O)(O)O)C(=O)O [L-AP4] | 19824 | 39523 | HIT | – | – | –
5 | COc1ccc(CCN(C)CCc2ccc(OC)c(OC)c2)cc1OC [YS-035] | 21415 | 42457 | HIT | – | – | –
6 | 7-(Dimethylcarbamoyloxy)-6-phenylpyrrolo | 14278 | 32900 | HIT | – | – | –
7 | CCN(CC)CCOc1ccc(Cc2ccccc2)cc1 [DPPE] | 20365 | 43629 | HIT | – | – | –
8 | Oc1ccc2c3c1O[C@H]1c4c(c5ccccc5n4Cc4ccccc4)C[C@@]4(O)[C@@H](C2)N(CC2CC2)CC[C@]314 [N-Benzyl naltrindole] | 14932 | 31760 | HIT | – | – | –
9 | CC#CCOC(=O)C1=CCCN(C)C1 [Arecaidine but-2-ynyl ester] | 20002 | 37675 | HIT | – | – | –
10 | N[C@@H](COP(=O)(O)O)C(=O)O [O-Phospho-L-serine] | 20292 | 41086 | HIT | – | – | –
11 | NCC(O)COc1cccc2ccccc12 (stereo not shown) [N-desisopropyl propanolol] | 23737 | 43102 | HIT | – | – | –
12 | NC(CCCP(=O)(O)O)C(=O)O [D-AP5] | 19717 | 41697 | HIT | – | – | –
13 | OCC(O)COc1cccc2ccccc12 (stereo not shown) [Propanolol glycol] | 17134 | 34849 | – | – | – | –
14 | NC1(C(=O)O)CCCC1 [Cycloleucine] | 19234 | 36560 | HIT | – | – | –
15 | CC(=O)N[C@@H](CC(=O)N[C@@H](CCC(=O)O)C(=O)O)C(=O)O [Spaglumic acid] | 20295 | 38417 | HIT | – | – | –
16 | CC(C)(Cc1c[nH]c2ccc(Cl)cc12)NCCOc1ccccc1OCC1CC1 [RS 17053] | 14439 | 32050 | HIT | – | – | –
17 | O=c1[nH]c2cc(Cl)ccc2c(O)c1-c1cccc(Oc2ccccc2)c1 [L-701,324] | 14647 | 32476 | HIT | – | – | –
18 | CC(N)(COP(=O)(O)Oc1ccccc1)C(=O)O (stereo not shown) [MSOPPE] | 23760 | 44614 | HIT | – | – | –
19 | COc1ccc(CNC(=O)/C=C/c2ccc3[nH]cc(CCN(C)C)c3c2)cc1 [GR 46611] | 15815 | 33199 | HIT | – | – | –
20 | NC(CCCCCC(=O)O)C(=O)O (racemic) [DL-2-Aminosuberic acid] | – | – | – | HIT | 17141 | 33518
21 | CP(=O)(O)C1=CCNCC1 [TPMPA] | 21792 | 120778 | HIT | – | – | –
22 | Cc1nccc2c1[nH]c1ccccc12 [Harmane HCl] | 1843115 | 555251 | – | – | – | –
23 | S(-)-Atenolol | 18176 | 36336 | HIT | – | – | –
24 | CC(=O)N1CCN(c2ccc(OCC3COC(Cn4ccnc4)(c4ccc(Cl)cc4Cl)O3)cc2)CC1 (stereo not shown) [Ketoconazole] | 15803 | 33531 | HIT | – | – | –
25 | C=CC(N)CCC(=O)O (stereo not shown) [Vigabatrin] | 20828 | 61410 | HIT | – | – | –
26 | CC(=O)O[C@H](CC(=O)[O-])C[N+](C)(C)C [(n)-Acetylcarnitine] | 23457 | 44156 | HIT | – | – | –
27 | CN(C)CCCn1cc(C2=C(c3c[nH]c4ccccc34)C(=O)NC2=O)c2ccccc21 [GF 109203X] | 15685 | 34448 | HIT | – | – | –
28 | O=C(O)[C@@H]1C[C@@H](C(=O)O)N1 [tADA] | 16096 | 32342 | HIT | – | – | –
